Experiments:
[1] = Permeability in human Caco-2 cells; assay type: ADME, cell-based; conditions: read-out: permeability
[2] = n-Octanol/water partition coefficient, logP of the compound; assay type: physicochemical
[3] = Aqueous solubility, logS of the compound; assay type: physicochemical; conditions: buffer

Papp [1] | logP [2] | logS0 [3] | Compound
0.57 ×10⁻⁶ cm/s |  |  | Cn1c(N/N=C/c2cccc(Cl)c2Cl)nc2ccccc2c1=O
 | 1.76 | -2.73 | N=C(Nc1cnc(F)c(F)c1)Nc1cnc(F)c(F)c1
0.53 ×10⁻⁶ cm/s |  |  | O=[N+]([O-])c1ccc(-n2cc(COc3ccc(/C=N/Nc4nnc(-c5ccccc5)c(-c5ccccc5)n4)cc3)nn2)cc1
0.53 ×10⁻⁶ cm/s |  |  | C(=N\Nc1nnc(-c2cccs2)c(-c2cccs2)n1)/c1cc2ccccc2[nH]1

Reference: ChEMBL document CHEMBL5223135, “Guanidine-based β amyloid precursor protein cleavage enzyme 1 (BACE-1) inhibitors for the Alzheimer's disease (AD): A review” (Bioorg Med Chem, 2022)
